Reference: ChEMBL document CHEMBL1140277, “Antibiotics GE23077, novel inhibitors of bacterial RNA polymerase. Part 3: Chemical derivatization” (Bioorg Med Chem Lett, 2005)
Converted amounts (≈) assume the structure as drawn. Numbered stars: 1 amine (or outer) side, 2 acyl side, 3 side chain; on linkers, the order of the positions; unused ones are H or OH. Square brackets hold non-standard residues; d marks the D form. Peptide text beside a SMILES is read from it. * marks the point of attachment. ξ: configuration not given here. ξGln(3,4-(OH)2) = NC(=O)C(O)C(O)C(N)C(=O)O; isoSer(2S) = O=C([C@@H](O)CN[*:1])[*:2]; ξAllylGly = C=CCC(N)C(=O)O; X1 = CC(NCc1ccccc1)C(=O)*; ξE = NC(CCC(=O)O)C(=O)O; Dap = NC[C@H](N)C(=O)O; X2 = C/C=C(/C)C(=O)*

Key:
[1] = Minimum inhibitory concentration against Moraxella catarrhalis using broth microdilution method; assay type: functional
[2] = Inhibitory concentration against RNA polymerase from Escherichia coli using cell freei transcription assay; assay type: functional

Row | Structure (SMILES) | MIC [1] [µg/mL] | IC50 [2] [µg/mL]
1 | C/C=C(/C)C(=O)NC[C@@H]1NC(=O)C(C(=O)OC)NC(=O)[C@@H](O)CNC(=O)[C@H]([C@@H](C)O)NC(=O)C(C(O)C(O)CNC(=O)Cc2ccc(-c3ccccc3)cc2)NC(=O)[C@H](C(C)C)NC(=O)[C@H](CO)NC1=O (some centres undefined) | > 512 | > 3.2
2 | C/C=C(/C)C(=O)NC[C@@H]1NC(=O)C(C(=O)OC)NC(=O)[C@@H](O)CNC(=O)[C@H]([C@@H](C)O)NC(=O)C(C(O)C(O)CNC(=O)/C=C/c2ccccc2)NC(=O)[C@H](C(C)C)NC(=O)[C@H](CO)NC1=O (some centres undefined) | > 512 | > 3.2
3 | C/C=C(/C)C(=O)NC[C@@H]1NC(=O)C(C(=O)OC)NC(=O)[C@@H](O)CNC(=O)[C@H]([C@@H](C)O)NC(=O)C(C(O)C(O)CNC(=O)C(CCCC)CCCCCC)NC(=O)[C@H](C(C)C)NC(=O)[C@H](CO)NC1=O (some centres undefined) | > 512 | > 3.2
4 | CCCCCCCCc1ccc(C(=O)NC(C)C(=O)NC[C@@H]2NC(=O)C(C(=O)O)NC(=O)[C@@H](O)CNC(=O)[C@H]([C@@H](C)O)NC(=O)C(C(O)C(O)C(N)=O)NC(=O)[C@H](C(C)C)NC(=O)[C@H](CO)NC2=O)cc1 (some centres undefined) | > 512 | 0.07 (≈ 0.0694 µM)
5 | CCCCCCCCC(=O)NC(C)C(=O)NC[C@@H]1NC(=O)C(C(=O)O)NC(=O)[C@@H](O)CNC(=O)[C@H]([C@@H](C)O)NC(=O)C(C(O)C(O)C(N)=O)NC(=O)[C@H](C(C)C)NC(=O)[C@H](CO)NC1=O (some centres undefined) | 256 (≈ 274 µM) | 0.09 (≈ 0.0965 µM)
6 | C=CCOC(=O)C1NC(=O)[C@@H](O)CNC(=O)[C@H]([C@@H](C)O)NC(=O)C(C(O)C(O)C(N)=O)NC(=O)[C@H](C(C)C)NC(=O)[C@H](CO)NC(=O)[C@H](CNC(=O)/C(C)=C\C)NC1=O (some centres undefined) | – | 0.4 (≈ 0.474 µM)
7 | CC(NC(=O)Cc1ccc(-c2ccccc2)cc1)C(=O)NC[C@@H]1NC(=O)C(C(=O)O)NC(=O)[C@@H](O)CNC(=O)[C@H]([C@@H](C)O)NC(=O)C(C(O)C(O)C(N)=O)NC(=O)[C@H](C(C)C)NC(=O)[C@H](CO)NC1=O (some centres undefined) | > 512 | 0.22 (≈ 0.223 µM)
8 | CCCCCCCCCCCCCCCCCC(=O)NC(C)C(=O)NC[C@@H]1NC(=O)[C@@H](C(=O)O)NC(=O)[C@@H](O)CNC(=O)[C@H]([C@@H](C)O)NC(=O)C(C(O)C(O)C(N)=O)NC(=O)[C@H](C(C)C)NC(=O)[C@H](CO)NC1=O (some centres undefined) | > 512 | 0.57 (≈ 0.538 µM)
9 | C/C=C(/C)C(=O)NC[C@@H]1NC(=O)C(C(=O)NC(Cc2ccc(O)cc2)C(=O)O)NC(=O)[C@@H](O)CNC(=O)[C@H]([C@@H](C)O)NC(=O)C(C(O)C(O)C(N)=O)NC(=O)[C@H](C(C)C)NC(=O)[C@H](CO)NC1=O (some centres undefined) | 512 (≈ 529 µM) | –
10 | CC(NCc1ccc(C(F)(F)F)cc1)C(=O)NC[C@@H]1NC(=O)C(C(=O)O)NC(=O)[C@@H](O)CNC(=O)[C@H]([C@@H](C)O)NC(=O)C(C(O)C(O)C(N)=O)NC(=O)[C@H](C(C)C)NC(=O)[C@H](CO)NC1=O (some centres undefined) | 256 (≈ 269 µM) | 0.05 (≈ 0.0526 µM)
11 | CC(NCC(F)(F)F)C(=O)NC[C@@H]1NC(=O)C(C(=O)O)NC(=O)[C@@H](O)CNC(=O)[C@H]([C@@H](C)O)NC(=O)C(C(O)C(O)C(N)=O)NC(=O)[C@H](C(C)C)NC(=O)[C@H](CO)NC1=O (some centres undefined) | > 512 | 0.17 (≈ 0.194 µM)
12 | CC(NC(=O)/C=C/c1ccccc1)C(=O)NC[C@@H]1NC(=O)C(C(=O)O)NC(=O)[C@@H](O)CNC(=O)[C@H]([C@@H](C)O)NC(=O)C(C(O)C(O)C(N)=O)NC(=O)[C@H](C(C)C)NC(=O)[C@H](CO)NC1=O (some centres undefined) | 128 (≈ 139 µM) | 0.08 (≈ 0.0867 µM)
13 | CCCCCCC(CCCC)C(=O)NC(C)C(=O)NC[C@@H]1NC(=O)C(C(=O)O)NC(=O)[C@@H](O)CNC(=O)[C@H]([C@@H](C)O)NC(=O)C(C(O)C(O)C(N)=O)NC(=O)[C@H](C(C)C)NC(=O)[C@H](CO)NC1=O (some centres undefined) | 512 (≈ 525 µM) | 0.13 (≈ 0.133 µM)
14 | C/C=C(/C)C(=O)NC[C@@H]1NC(=O)C(C(=O)N(C)OC)NC(=O)[C@@H](O)CNC(=O)[C@H]([C@@H](C)O)NC(=O)C(C(O)C(O)C(N)=O)NC(=O)[C@H](C(C)C)NC(=O)[C@H](CO)NC1=O (some centres undefined) | – | 0.4 (≈ 0.472 µM)
15 | CC(NCc1cc(C(F)(F)F)cc(C(F)(F)F)c1)C(=O)NC[C@@H]1NC(=O)C(C(=O)O)NC(=O)[C@@H](O)CNC(=O)[C@H]([C@@H](C)O)NC(=O)C(C(O)C(O)C(N)=O)NC(=O)[C@H](C(C)C)NC(=O)[C@H](CO)NC1=O (some centres undefined) | 512 (≈ 503 µM) | 0.24 (≈ 0.236 µM)

Further compounds by falling MIC [1], results first:

Row | MIC [1] [µg/mL] | IC50 [2] [µg/mL] | Structure (SMILES)
16 | 128 (≈ 153 µM) | 1.05 (≈ 1.25 µM) | CC(NCc1ccccc1)C(=O)NC[C@@H]1NC(=O)CNC(=O)[C@@H](O)CNC(=O)[C@H]([C@@H](C)O)NC(=O)C(C(O)C(O)C(N)=O)NC(=O)[C@H](C(C)C)NC(=O)[C@H](CO)NC1=O (stereo partly drawn) (cyclo([Dap](X1)SV[ξGln(3,4-(OH)2)]T[isoSer(2S)]G))
17 | 128 (≈ 143 µM) | 0.3 (≈ 0.336 µM) | C/C=C(/C)C(=O)NC[C@@H]1NC(=O)C(C(=O)NCc2ccccc2)NC(=O)[C@@H](O)CNC(=O)[C@H]([C@@H](C)O)NC(=O)C(C(O)C(O)C(N)=O)NC(=O)[C@H](C(C)C)NC(=O)[C@H](CO)NC1=O (some centres undefined)
18 | 64 (≈ 68.3 µM) | 0.06 (≈ 0.064 µM) | CC(NCc1cc(F)c(F)c(F)c1)C(=O)NC[C@@H]1NC(=O)C(C(=O)O)NC(=O)[C@@H](O)CNC(=O)[C@H]([C@@H](C)O)NC(=O)C(C(O)C(O)C(N)=O)NC(=O)[C@H](C(C)C)NC(=O)[C@H](CO)NC1=O (some centres undefined)
19 | 64 (≈ 80.6 µM) | 0.11 (≈ 0.139 µM) | CC(O)C(=O)NC[C@@H]1NC(=O)C(C(=O)O)NC(=O)[C@@H](O)CNC(=O)[C@H]([C@@H](C)O)NC(=O)C(C(O)C(O)C(N)=O)NC(=O)[C@H](C(C)C)NC(=O)[C@H](CO)NC1=O (some centres undefined)
20 | 64 (≈ 76.9 µM) | 0.1 (≈ 0.12 µM) | C/C=C(/C)C(=O)NC[C@@H]1NC(=O)C(C(=O)OCC)NC(=O)[C@@H](O)CNC(=O)[C@H]([C@@H](C)O)NC(=O)C(C(O)C(O)C(N)=O)NC(=O)[C@H](C(C)C)NC(=O)[C@H](CO)NC1=O (some centres undefined)
21 | 64 (≈ 66.7 µM) | > 3.2 | C/C=C(/C)C(=O)NC[C@@H]1NC(=O)C(C(=O)N[C@@H](C)C(=O)N[C@@H](C)C(=O)OC)NC(=O)[C@@H](O)CNC(=O)[C@H]([C@@H](C)O)NC(=O)C(C(O)C(O)C(N)=O)NC(=O)[C@H](C(C)C)NC(=O)[C@H](CO)NC1=O (some centres undefined)
22 | 64 (≈ 80.7 µM) | 0.28 (≈ 0.353 µM) | CC(N)C(=O)NC[C@@H]1NC(=O)C(C(=O)O)NC(=O)[C@@H](O)CNC(=O)[C@H]([C@@H](C)O)NC(=O)C(C(O)C(O)C(N)=O)NC(=O)[C@H](C(C)C)NC(=O)[C@H](CO)NC1=O (some centres undefined)
23 | 32 (≈ 40 µM) | 2.24 (≈ 2.8 µM) | C=CCC1NC(=O)[C@@H](O)CNC(=O)[C@H]([C@@H](C)O)NC(=O)C(C(O)C(O)C(N)=O)NC(=O)[C@H](C(C)C)NC(=O)[C@H](CO)NC(=O)[C@H](CNC(=O)/C(C)=C\C)NC1=O (stereo partly drawn) (cyclo([Dap](X2)SV[ξGln(3,4-(OH)2)]T[isoSer(2S)][ξAllylGly]))
24 | 32 (≈ 36.2 µM) | 0.07 (≈ 0.0793 µM) | CC(NCc1ccccc1)C(=O)NC[C@@H]1NC(=O)C(C(=O)O)NC(=O)[C@@H](O)CNC(=O)[C@H]([C@@H](C)O)NC(=O)C(C(O)C(O)C(N)=O)NC(=O)[C@H](C(C)C)NC(=O)[C@H](CO)NC1=O (some centres undefined)
25 | 32 (≈ 39.8 µM) | 3.14 (≈ 3.91 µM) | C/C=C(/C)C(=O)NC[C@@H]1NC(=O)C(C(=O)OC)NC(=O)[C@@H](O)CNC(=O)[C@H]([C@@H](C)O)NC(=O)C(C(O)C(O)CN)NC(=O)[C@H](C(C)C)NC(=O)[C@H](CO)NC1=O (some centres undefined)
26 | 16 (≈ 21.1 µM) | 0.65 (≈ 0.856 µM) | C/C=C(/C)C(=O)NC[C@@H]1NC(=O)CNC(=O)[C@@H](O)CNC(=O)[C@H]([C@@H](C)O)NC(=O)C(C(O)C(O)C(N)=O)NC(=O)[C@H](C(C)C)NC(=O)[C@H](CO)NC1=O (stereo partly drawn) (cyclo([Dap](X2)SV[ξGln(3,4-(OH)2)]T[isoSer(2S)]G))
27 | 16 (≈ 18 µM) | 0.42 (≈ 0.472 µM) | CC(NCC1CCCCC1)C(=O)NC[C@@H]1NC(=O)C(C(=O)O)NC(=O)[C@@H](O)CNC(=O)[C@H]([C@@H](C)O)NC(=O)C(C(O)C(O)C(N)=O)NC(=O)[C@H](C(C)C)NC(=O)[C@H](CO)NC1=O (some centres undefined)
28 | 8 (≈ 9.62 µM) | 0.2 (≈ 0.24 µM) | C/C=C(/C)C(=O)NC[C@@H]1NC(=O)C(CCC(=O)O)NC(=O)[C@@H](O)CNC(=O)[C@H]([C@@H](C)O)NC(=O)C(C(O)C(O)C(N)=O)NC(=O)[C@H](C(C)C)NC(=O)[C@H](CO)NC1=O (stereo partly drawn) (cyclo([Dap](X2)SV[ξGln(3,4-(OH)2)]T[isoSer(2S)][ξE]))
29 | 8 (≈ 10.1 µM) | 0.07 (≈ 0.0884 µM) | CC(=O)C(=O)NC[C@@H]1NC(=O)C(C(=O)O)NC(=O)[C@@H](O)CNC(=O)[C@H]([C@@H](C)O)NC(=O)C(C(O)C(O)C(N)=O)NC(=O)[C@H](C(C)C)NC(=O)[C@H](CO)NC1=O (some centres undefined)
30 | 8 (≈ 9.95 µM) | 0.03 (≈ 0.0373 µM) | C/C=C(/C)C(=O)NC[C@@H]1NC(=O)[C@@H](C(=O)O)NC(=O)[C@@H](O)CNC(=O)[C@H]([C@@H](C)O)NC(=O)C(C(O)C(O)C(N)=O)NC(=O)[C@H](C(C)C)NC(=O)[C@H](CO)NC1=O (some centres undefined)
31 | 8 (≈ 9.78 µM) | 0.15 (≈ 0.183 µM) | C/C=C(/C)C(=O)NC[C@@H]1NC(=O)C(C(=O)OC)NC(=O)[C@@H](O)CNC(=O)[C@H]([C@@H](C)O)NC(=O)C(C(O)C(O)C(N)=O)NC(=O)[C@H](C(C)C)NC(=O)[C@H](CO)NC1=O (some centres undefined)
